Data set [1] relates to elastolytic protease cathepsins. Particulars: cited from earlier work.
The next data set in a line: human serum. Particulars: up to 60 min.
A short description of data set [2]: human serum from an healthy donor [240 µl 20% (v/v) in PBS]. Particulars: 37 °C, up to 24 h.
The conditions of data set [3]: cited from earlier work.
A further data set relates to HSV-1. As to the kind of experiment: HSV infectivity on Vero cell monolayers (plaque count). Format: cell-based, Herpes simplex virus. The note with it: for IC50: read-out: concentration showing 50% inhibition. As for the experimental part: The antiviral activity of the γ-core peptides γ and ε in oxidized and reduced form was evaluated, in comparison with reduced HBD3, against HIV and HSV. To establish in which phase, if any, the peptides inhibit virus infectivity, we performed experiments in four conditions: a) peptides incubated with the virus before being added to the target cells (“virus pre-treatment”), b) peptides incubated with the cells before exposure to the virus (“cell pre-treatment”), c) simultaneous addition of peptides and virus to the target cells (“co-treatment”), and d) peptides added to the virus-exposed cells (“post-treatment”).
The antiviral activity of the peptides against human immunodeficiency virus (HIV) and herpes simplex virus (HSV) was measured as previously described. For details, see SI. […]
Antiviral Activity against Herpes Simplex Virus (HSV). Vero cells were grown in Dulbecco’s modified Eagle’s medium (DMEM) supplemented with 10% fetal calf serum. HSV-1 carrying a lacZ gene driven by the cytomegalovirus (CMV) IE-1 promoter to express beta-galactosidase was propagated as described elsewhere12. All experiments were conducted in parallel with no-peptide controls. The effect of peptides on the inhibition of HSV infectivity on cell monolayers13 was assessed as follows: (i) For “co-exposure” experiments, the cells were incubated with increasing concentrations of the peptides (1, 5, 10, 20, 50, 100 and 150 µM) and with the viral inoculum for 45 min at 37°C. Non -penetrated viruses were inactivated by citrate buffer at pH 3.0. Monolayers were fixed, stained with 5-bromo-4-chloro-3-indolyl-beta-D-galactopyranoside (X-gal) and plaque […]
numbers were scored. Experiments were performed in triplicate and the % inhibition was calculated vs. the no-peptide control; (ii) For “virus pre-exposure” experiments, approximately 2 x 10^4 PFU of HSV-1 were incubated with increasing concentrations of the peptides for 45 min at 37°C, then titrated on Vero cell monolayers; iii) For “cell pre-exposure” experiments, Vero cells were incubated with increasing concentrations of the peptides for 30 min at 4°C, and infected with serial dilutions of HSV-1 for 45 min at 37°C; and iv) For “po st-exposure” experiments, Vero cell monolayers were incubated with virus for 45 minutes at 37°C and afterwards the peptides were added to the inoculum, followed by an additional incubation period of 30 minutes at 37°C. […]

Another data set has as its target T1, CD98_103-630 (Homo sapiens, UniProt P08195).
T1 construct: GST-CD98 (102-630) and the truncated GST-CD98 (304-414); purchased Novus Biologicals, Littleton, CO
T1 sequence (P08195 102-630 isoform P08195-1): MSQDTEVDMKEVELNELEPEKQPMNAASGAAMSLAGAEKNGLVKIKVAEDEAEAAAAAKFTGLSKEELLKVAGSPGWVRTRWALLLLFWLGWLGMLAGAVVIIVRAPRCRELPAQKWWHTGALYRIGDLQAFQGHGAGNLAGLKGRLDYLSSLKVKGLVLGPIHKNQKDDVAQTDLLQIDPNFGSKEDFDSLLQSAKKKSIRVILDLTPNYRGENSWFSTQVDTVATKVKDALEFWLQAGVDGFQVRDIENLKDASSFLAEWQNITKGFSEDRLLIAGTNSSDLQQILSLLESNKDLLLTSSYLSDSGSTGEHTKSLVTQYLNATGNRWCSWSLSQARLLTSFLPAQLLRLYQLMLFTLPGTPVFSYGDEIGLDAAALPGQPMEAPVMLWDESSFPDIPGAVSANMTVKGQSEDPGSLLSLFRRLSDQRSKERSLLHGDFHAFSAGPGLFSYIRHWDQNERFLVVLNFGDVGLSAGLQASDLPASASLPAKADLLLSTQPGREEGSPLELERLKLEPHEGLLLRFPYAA
As to the kind of experiment: SPR binding to immobilized CD98_103-630. Particulars: for Koff1 / Koff2 / Kon2: 25 °C, immobilized CD98_103-630; for Kon1: Biacore T200, 25 °C, HBS-EP pH 7.4, immobilized CD98_103-630. As for the experimental part: (§1) Surface Plasmon Resonance experiments were performed as previously described. For details, see SI. […]
(§2) Surface Plasmon resonance. Surface Plasmon resonance (SPR) experiments were performed using a Biacore T200 system (GE Healthcare, Uppsala, Sweden), at 25 °C . Binding assays were carried out between various CD98 sequences and both reduced and oxidized HBD3. The residue numbering […]
(§3) (Novus Biologicals, Littleton, CO) were immobilized on a CM4 and/or a CM5 sensor chip (research grade) by the standard amine coupling procedure, using HBS-EP buffer (HEPES 10 mM, NaCl 150 mM, EDTA 3 mM, Surfactant P20 0.005%, pH 7.4), as running buffer. CD98 was immobilized through activation of the sensor chip with 60 µL of N-hydroxysuccinimide and N-ethyl-N-(dimethylaminopropyl)-carbodiimide at 10 µL min-1, followed by a 30 µL injection of protein diluted in 10 mM sodium acetate buffer, pH 4.0. Unreacted activated groups were blocked by a 60 µL injection of 1 M ethanolamine at 10 µL min-1. The final amount of immobilized CD98 was typically between ~ 1500 and 5000 RU, corresponding to a protein concentration of 15 ÷ 50 mg/mL on the surface layer. Subsequently, the peptides or full-length HBD3 were injected at various concentrations (100 nM–100 µM), using HBS-EP as running buffer. The binding assays were performed under previously optimized conditions14, i.e. a contact time of 120 s, a dissociation time of 1000 s, and a flow rate of 30 µL min-1.
(§4) The SPR sensorgrams were analyzed by curve-fitting using the Biacore T200 Evaluation software.
(§5) Dose response curves were plotted using the SPR sensorgrams and the corresponding fit. Various
In general terms: In SPR one partner is held on a chip, and binding of the other changes the refractive index at the surface.

In data set [4] the test system is elastolytic protease cathepsins. Particulars: cited from earlier work. The source says: We asked whether the γ-core motif within HBDs represents a primordial HDP that evolved into the full-length molecules of today. To answer the question, we analyzed the structural and biological properties of the β-hairpin peptide of HBD3, which is the smallest substructure encompassing the γ-core motif (Fig. 1B).
This is another data set of the same source.

In another data set the target is T2, CD98_304-414 (Homo sapiens, UniProt P08195).
T2 construct: GST-CD98 (102-630) and the truncated GST-CD98 (304-414); purchased Novus Biologicals, Littleton, CO
T2 sequence (P08195 304-414 isoform P08195-1): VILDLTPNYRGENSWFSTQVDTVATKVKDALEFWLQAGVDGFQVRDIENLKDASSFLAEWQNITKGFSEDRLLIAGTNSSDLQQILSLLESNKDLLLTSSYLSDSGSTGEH
As to the kind of experiment: SPR binding to immobilized CD98_304-414. Particulars: 25 °C. As for the experimental part: as §1, §2, §3, §4, §5

The nature of data set [5]: Oxidative folding (disulfide formation) in Tris HCl pH 7.5. The class given is physicochemical. The note with it: Tris HCl 100 mM pH 7.5, open vessel, RP-HPLC-ESI-MS after iodoacetamide alkylation. As for the experimental part: Reduced HBD3 was dissolved in Tris HCl 100 mM pH 7.5 (final peptide concentration 0.5 mg/mL) and shaken in an open vessel, with periodic withdrawal of aliquots. After alkylation of the free thiol groups with iodoacetamide solution, 100 μg of each the aliquot were analysed through RP-HPLC-ESI-MS to evaluate the oxidation status. The remaining 200 μg were purified via RP-HPLC to eliminate excess iodoacetamide, lyophilized, and subjected to tryptic digestion. Tryptic fragments were then indentified through RP-HPLC-ESI-MS. The same procedure, except tryptic digestion, was used for peptides γ and ε. Full details are given in the SI.

Entries after “also recorded” stand apart in the source; their conditions may differ. Read-outs that look alike come from different tables or passages of the source. Where a SMILES comes first, the peptide text is derived from it. Bridges are numbered along the chain shown (N, C = ends). Where no end group is shown, it is not given here.

With “GIINTLQKYYCRVRGGRCAVLSCLPKEEQIGKCSTRGRKCCRRKK”, the fragment found entry in [1] was “the sequence from 22 to 45 amino acids residues of HBD3”. Also, the not cleaved entry in “plasma” is given as “stable in plasma”.
Ac-CLPKEEQIGKSSTRGRKSCRRKK-NH2: the fragment found result in the data set “human serum” is given as “disulfide-bridged form (oxidized peptide γ)”. The cleaved bond result in data set [2] is reported as “Arg20-Arg21, 6 h; also recorded: Lys22-Lys23, 6 h; also recorded: Cys19-Arg20, 6 h”.
Regarding Ac-CLPKEEQIGKSSTRGRKSC-NH2, the not cleaved result in [2] was “found intact after 24 h incubation”.
For the compound “human β-defensin 3 (GIINTLQKYYCRVRGGRCAVLSCLPKEEQIGKCSTRGRKCCRRKK; not fully specified (bridges); cysteine pairing not given here; UniProt P81534 23-67, looked up) [HBD3, full-length human β-defensin 3, parent host defence peptide, reference compound]”, the “stability in human serum in words” value in data set [3] was “highly stable”. Further, the figures for the IC50 in the data set with HSV-1 (cell pre-treatment), with HSV-1 (co-exposure) and with HSV-1 (virus pre-exposure) were 10 µM, 10 µM and 20 µM, respectively. In addition, in the data set on HSV-1 (post-exposure / post-treatment conditions), the “efficacy against HSV in words” value is on record as “no efficacy”. In addition, the Koff1 with CD98_103-630 is given as 2.10 ± 0.03 ×10^−2 s^−1; in the data set with CD98_304-414 it was 1.26 ± 0.03 ×10^−2 s^−1. The Koff2 is on record as 1.930 ± 0.03 ×10^−3 s^−1 in the data set with CD98_103-630 and 0.907 ± 0.007 ×10^−3 s^−1 with CD98_304-414. Besides, the Kon2 is given as 9.03 ± 0.06 x10^−3 s^−1 in the data set with CD98_103-630 and 5.44 ± 0.06 x10^−3 s^−1 with CD98_304-414. The Kon1 in the data set with CD98_103-630 is listed as 8.51 ± 0.05 ×10^3 M^−1s^−1; in the data set with CD98_304-414 it was 4.65 ± 0.07 ×10^3 M^−1s^−1. In addition, the “degradation by cathepsins in words” value in data set [4] is reported as “rapidly degraded”.
With `CC[C@H](C)[C@@H]1NC(=O)[C@H](CCC(N)=O)NC(=O)[C@H](CCC(=O)O)NC(=O)[C@H](CCC(=O)O)NC(=O)[C@H](CCCCN)NC(=O)[C@@H]2CCCN2C(=O)[C@H](CC(C)C)NC(=O)[C@H](CO)NC(=O)[C@H](CO)NC(=O)[C@H](CC(C)C)NC(=O)[C@H](C(C)C)NC(=O)[C@H](C)NC(=O)[C@@H](NC(C)=O)CSSC[C@@H](C(N)=O)NC(=O)[C@H](CCCCN)NC(=O)CNC1=O` [peptide δ, [S^23]HBD3_18–33] (Ac-CAVLSSLPKEEQIGKC-NH2; disulfide 1-16), the “oxidation state (intramolecular disulfide) after 3 h” value in data set [5] is reported as “still mostly reduced”.
In the case of [S^33,40]HBD3_23–41 [Peptide ε], at CD98_103-630, the Koff1 is 5.48 ± 0.03 ×10^−2 s^−1, the Koff2 is on record as 0.128 ± 0.04 ×10^−3 s^−1, the Kon2 is reported as 1.24 ± 0.04 x10^−3 s^−1 and the Kon1 is listed as 0.73 ± 0.02 ×10^3 M^−1s^−1. On CD98_103-630 (from Table 1), the “fold lower affinity for CD98 than HBD3” value is 70 fold. Moreover, at CD98_304-414, the Koff1 is listed as 5.38 ± 0.05 ×10^−2 s^−1, the Koff2 is given as 0.116 ± 0.06 ×10^−3 s^−1, the Kon1 is reported as 0.71 ± 0.04 ×10^3 M^−1s^−1 and the Kon2 is on record as 5.67 ± 0.05 x10^−3 s^−1.
